Where a SMILES comes first, the peptide text is derived from it. Bridges are numbered along the chain shown (N, C = ends). [ ]: non-standard residue; d: D form. The star is where a group is joined. hPhe(3-Cl-4-CF3) = N[C@@H](CCc1ccc(C(F)(F)F)c(Cl)c1)C(=O)O; NPrPhe(4-CF3) = CCCN[C@@H](Cc1ccc(C(F)(F)F)cc1)C(=O)O; NMeGly(cPent) = CN[C@H](C(=O)O)C1CCCC1; Pro(4,4-F2) = O=C(O)[C@@H]1CC(F)(F)CN1; NMeGly(cBu) = CN[C@H](C(=O)O)C1CCC1; NMeD = CN[C@@H](CC(=O)O)C(=O)O; NMeL = CN[C@@H](CC(C)C)C(=O)O; Morpholide = C1CN(*)CCO1; Ac5c = NC1(C(=O)O)CCCC1; Aze = O=C(O)[C@@H]1CCN1; Ac4c = NC1(C(=O)O)CCC1; Sar = CNCC(=O)O
Tests used:
[1] = target: GDP-bound HRAS wild-type protein (Homo sapiens, UniProt P01112); experiment: Binding to HRAS by surface plasmon resonance (SPR), Single Cycle Kinetics; conditions: for HRAS/KRAS (ratio of KD value with respect to HRAS to KD value with respect to KRAS): GDP-bound HRAS wild-type vs GDP-bound KRAS wild-type
GDP-bound HRAS wild-type protein, sequence (P01112 whole entry): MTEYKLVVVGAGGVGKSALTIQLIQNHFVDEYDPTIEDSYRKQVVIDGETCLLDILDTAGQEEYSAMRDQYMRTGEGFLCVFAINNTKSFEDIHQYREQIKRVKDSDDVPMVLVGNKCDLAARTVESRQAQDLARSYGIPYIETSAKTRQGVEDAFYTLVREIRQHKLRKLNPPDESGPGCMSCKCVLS

[2] = target: GDP-bound NRAS wild-type protein (Homo sapiens, UniProt P01111); experiment: Binding to NRAS by surface plasmon resonance (SPR), Single Cycle Kinetics; conditions: for NRAS/KRAS (ratio of KD value with respect to NRAS to KD value with respect to KRAS): GDP-bound NRAS wild-type vs GDP-bound KRAS wild-type
GDP-bound NRAS wild-type protein, sequence (P01111 whole entry): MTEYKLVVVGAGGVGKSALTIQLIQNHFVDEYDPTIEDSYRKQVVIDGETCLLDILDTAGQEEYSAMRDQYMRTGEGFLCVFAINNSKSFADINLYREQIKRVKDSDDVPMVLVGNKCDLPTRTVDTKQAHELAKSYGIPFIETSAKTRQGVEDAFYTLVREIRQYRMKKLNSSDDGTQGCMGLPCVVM

CCCN1C(=O)CN(C)C(=O)CN(C)C(=O)[C@H]([C@@H](C)CC)NC(=O)[C@H](C2CCC2)N(C)C(=O)C[C@@H](C(=O)N2CCOCC2)N(C)C(=O)[C@H](C2CCCC2)N(C)C(=O)C2(CCCC2)NC(=O)[C@@H]2CCCN2C(=O)[C@H](CCc2ccc(C(F)(F)F)c(Cl)c2)NC(=O)CN(C)C(=O)[C@@H]1Cc1ccc(C(F)(F)F)cc1 [PP0188] ([NMeGly(cBu)]I[Sar][Sar][NPrPhe(4-CF3)][Sar][hPhe(3-Cl-4-CF3)]P[Ac5c][NMeGly(cPent)][NMeD]-Morpholide; lactam N-11)
HRAS/KRAS (ratio of KD for GDP-bound HRAS wild-type to KD for KRAS) ([1]; KD ratio HRAS/KRAS, SPR): C (A compound having a KD ratio of 0.1 or more and less than 3 is denoted as C) | NRAS/KRAS (ratio of KD for GDP-bound NRAS wild-type to KD for KRAS) ([2]; KD ratio NRAS/KRAS, SPR): B (a compound having 3 or more and less than 10 is denoted as B)

CC[C@H](C)[C@@H]1NC(=O)[C@H](C)N(C)C(=O)C[C@@H](C(=O)N(C)C)N(C)C(=O)[C@H](C2CCCC2)N(C)C(=O)C2(CCC2)NC(=O)[C@@H]2CCCN2C(=O)[C@H](CCc2cc(F)c(C(F)(F)F)c(F)c2)NC(=O)CN(C)C(=O)[C@H](Cc2ccc(C(F)(F)F)cc2)N2CCCC[C@@H](C2=O)N(C)C(=O)CN(C)C1=O [PP0581]
HRAS/KRAS (ratio of KD value with respect to GDP-bound HRAS wild-type protein to KD value with respect to KRAS) ([1]; KD ratio HRAS/KRAS, SPR): B (a compound having 3 or more and less than 10 is denoted as B) | NRAS/KRAS (ratio of KD value with respect to GDP-bound NRAS wild-type protein to KD value with respect to KRAS) ([2]; KD ratio NRAS/KRAS, SPR): C (A compound having a KD ratio of 0.1 or more and less than 3 is denoted as C)

CC[C@H](C)[C@@H]1NC(=O)[C@H](CC)N(C)C(=O)C[C@@H](C)N(C)C(=O)[C@H](C2CCCC2)N(C)C(=O)C2(CCCC2)NC(=O)[C@@H]2CCCN2C(=O)[C@H](CCc2cc(F)c(C(F)(F)F)c(F)c2)NC(=O)CN(C)C(=O)[C@H](Cc2ccc(C(F)(F)F)cc2)N2CC/C=C\C[C@@H](C2=O)N(C)C(=O)CN(C)C1=O [PP1101]
HRAS/KRAS (ratio of KD value with respect to HRAS to KD value with respect to KRAS) ([1]; KD ratio, SPR): B (a compound having 3 or more and less than 10 is denoted as B) | NRAS/KRAS (ratio of KD value with respect to NRAS to KD value with respect to KRAS) ([2]; KD ratio, SPR): B (a compound having 3 or more and less than 10 is denoted as B)

CCCO[C@H]1CCN2C(=O)[C@H](CCc3cc(F)c(C(F)(F)F)c(F)c3)NC(=O)CN(C)C(=O)[C@H](Cc3ccc(C(F)(F)F)cc3)N3CCCC[C@@H](C3=O)N(C)C(=O)CN(C)C(=O)[C@H]([C@@H](C)CC)NC(=O)[C@H](CC(C)C)N(C)C(=O)C[C@@H](C(=O)N3CCOCC3)N(C)C(=O)[C@H](C3CCCC3)N(C)C(=O)C3(CCC3)NC(=O)[C@H]12 [PP1077]
HRAS/KRAS (ratio of KD value with respect to HRAS to KD value with respect to KRAS) ([1]; KD ratio, SPR): B (a compound having 3 or more and less than 10 is denoted as B) | NRAS/KRAS (ratio of KD value with respect to NRAS to KD value with respect to KRAS) ([2]; KD ratio, SPR): B (a compound having 3 or more and less than 10 is denoted as B)

CCCN1C(=O)[C@@H]2CCN2C(=O)CN(C)C(=O)[C@H]([C@@H](C)CC)NC(=O)[C@H](CC(C)C)N(C)C(=O)C[C@@H](C(=O)N(C)C)N(C)C(=O)[C@H](C2CCCC2)N(C)C(=O)C2(CCC2)NC(=O)[C@@H]2CC(F)(F)CN2C(=O)[C@H](CCc2ccc(C(F)(F)F)c(Cl)c2)NC(=O)CN(C)C(=O)[C@@H]1Cc1ccc(C(F)(F)F)cc1 [PP0443] ([NMeL]I[Sar][Aze][NPrPhe(4-CF3)][Sar][hPhe(3-Cl-4-CF3)][Pro(4,4-F2)][Ac4c][NMeGly(cPent)][NMeD]-NMe2; lactam N-11)
HRAS/KRAS (ratio of KD value with respect to GDP-bound HRAS wild-type protein to KD value with respect to KRAS) ([1]; KD ratio HRAS/KRAS, SPR): C (A compound having a KD ratio of 0.1 or more and less than 3 is denoted as C) | NRAS/KRAS (ratio of KD value with respect to GDP-bound NRAS wild-type protein to KD value with respect to KRAS) ([2]; KD ratio NRAS/KRAS, SPR): C (A compound having a KD ratio of 0.1 or more and less than 3 is denoted as C)

CCC[C@H]1C(=O)N[C@@H]([C@@H](C)CC)C(=O)N(C)CC(=O)N(C)[C@H]2C/C=C\CCN(C2=O)[C@@H](Cc2ccc(C(F)(F)F)cc2)C(=O)N(C)CC(=O)N[C@@H](CCc2ccc(C(F)(F)F)c(OC)c2)C(=O)N2CCOC[C@H]2C(=O)NC2(CC(C)(C)C2)C(=O)N(C)[C@@H](C(CC)CC)C(=O)N(C)[C@H](C(=O)N(C)C)CC(=O)N1C [PP2935]
HRAS/KRAS (ratio of KD value with respect to GDP-bound HRAS wild-type protein to KD value with respect to KRAS) ([1]; KD ratio HRAS/KRAS, class symbols): A (a compound having 10 or more and less than 20 is denoted as A) | NRAS/KRAS (ratio of KD value with respect to GDP-bound NRAS wild-type protein to KD value with respect to KRAS) ([2]; KD ratio NRAS/KRAS, class symbols): A (a compound having 10 or more and less than 20 is denoted as A)

CCO[C@@H]1C[C@H]2C(=O)NC3(CC(C)(C)C3)C(=O)N(C)[C@@H](C(CC)CC)C(=O)N(C)[C@H](C(=O)N(C)C)CC(=O)N(C)[C@@H](C(C)C)C(=O)N[C@@H]([C@@H](C)CC)C(=O)N(C)CC(=O)N(C)[C@H]3C/C=C\CCN(C3=O)[C@@H](Cc3ccc(C)cc3)C(=O)N(C)CC(=O)N[C@@H](CCc3cc(F)c(C(F)(F)F)c(F)c3)C(=O)N2C1 [PP2153]
HRAS/KRAS (ratio of KD value with respect to HRAS to KD value with respect to KRAS) ([1]; SPR): A (a compound having 10 or more and less than 20 is denoted as A) | NRAS/KRAS (ratio of KD value with respect to NRAS to KD value with respect to KRAS) ([2]; SPR): A (a compound having 10 or more and less than 20 is denoted as A)
